# Tested on: MV-4-11 cells
# Test: Gene expression microarray analysis (Affymetrix PrimeView) and GSEA
# Type: cell-based, human
# Design: RFU PODN (11730768_x_at) / Fold change /veh PODN (11730768_x_at) / RFU LINC00158 (11744669_a_at) / Fold change /veh LINC00158 (11744669_a_at) / RFU DUSP10 (11751237_a_at) / Fold change /veh DUSP10 (11751237_a_at) / RFU ID3 (11757404_x_at) / Fold change /veh ID3 (11757404_x_at) / RFU PLEKHG5 (11737974_s_at) / Fold change /veh PLEKHG5 (11737974_s_at) / RFU LRRC4B (11730491_at) / Fold change /veh LRRC4B (11730491_at) / RFU GIMAP4 (11747438_a_at) / Fold change /veh GIMAP4 (11747438_a_at) / RFU KRT8 (11758183_x_at) / Fold change /veh KRT8 (11758183_x_at) / RFU CNN1 (11734310_a_at) / Fold change /veh CNN1 (11734310_a_at) / RFU VPS37D (11726825_at) / Fold change /veh VPS37D (11726825_at) / RFU C10orf10 (11716522_x_at) / Fold change /veh C10orf10 (11716522_x_at) / RFU KIR2DL2 /// KIR2DL4 /// KIR2DL5A /// KIR2DL5B /// KIR2DS1 /// KIR2DS2 /// KIR2DS3 /// KIR2DS4 /// KIR3DL3 /// KIR3DL3 /// KIR3DS1 (11738374_at) / Fold change /veh KIR2DL2 /// KIR2DL4 /// KIR2DL5A /// KIR2DL5B /// KIR2DS1 /// KIR2DS2 /// KIR2DS3 /// KIR2DS4 /// KIR3DL3 /// KIR3DL3 /// KIR3DS1 (11738374_at) / RFU C1QL1 (11718748_at) / Fold change /veh C1QL1 (11718748_at) / RFU TMPRSS4 (11747572_a_at) / Fold change /veh TMPRSS4 (11747572_a_at) / RFU HAMP (11756126_x_at) / Fold change /veh HAMP (11756126_x_at) / RFU RNFT2 (11725882_a_at) / Fold change /veh RNFT2 (11725882_a_at) / RFU NR4A2 (11747474_a_at) / Fold change /veh NR4A2 (11747474_a_at) / RFU ABCC12 (11746883_a_at) / Fold change /veh ABCC12 (11746883_a_at) / RFU TMEM136 (11760407_x_at) / Fold change /veh TMEM136 (11760407_x_at) / RFU CLDN22 /// WWC2 (11732394_at) / Fold change /veh CLDN22 /// WWC2 (11732394_at) / RFU HLA-DPB1 (11760878_x_at) / Fold change /veh HLA-DPB1 (11760878_x_at) / RFU SPINT1 (11716480_a_at) / Fold change /veh SPINT1 (11716480_a_at) / RFU GAP43 (11754022_s_at) / Fold change /veh GAP43 (11754022_s_at) / RFU A4GNT (11735810_at) / Fold change /veh A4GNT (11735810_at) / RFU PRB3 (11715151_x_at) / Fold change /veh PRB3 (11715151_x_at) / RFU TUBB4B (11761932_at) / Fold change /veh TUBB4B (11761932_at) / RFU CAPN14 (11732068_a_at) / Fold change /veh CAPN14 (11732068_a_at) / RFU TMCC2 (11721928_a_at) / Fold change /veh TMCC2 (11721928_a_at) / RFU IRGQ (11745062_a_at) / Fold change /veh IRGQ (11745062_a_at) / RFU FAM174B (11720279_a_at) / Fold change /veh FAM174B (11720279_a_at) / RFU TMPRSS4 (11748680_a_at) / Fold change /veh TMPRSS4 (11748680_a_at) / RFU FAM212B (11763350_a_at) / Fold change /veh FAM212B (11763350_a_at) / RFU PLEKHG5 (11743358_a_at) / Fold change /veh PLEKHG5 (11743358_a_at) / RFU ZSCAN30 (11745921_a_at) / Fold change /veh ZSCAN30 (11745921_a_at) / RFU CMKLR1 (11741424_a_at) / Fold change /veh CMKLR1 (11741424_a_at) / RFU LOC101060620 /// MAPK8IP1 (11723275_at) / Fold change /veh LOC101060620 /// MAPK8IP1 (11723275_at) / RFU SPTSSB (11747773_x_at) / Fold change /veh SPTSSB (11747773_x_at) / RFU PRSS12 (11739890_at) / Fold change /veh PRSS12 (11739890_at) / RFU BIN1 (11741810_x_at) / Fold change /veh BIN1 (11741810_x_at) / RFU WNT11 (11732464_a_at) / Fold change /veh WNT11 (11732464_a_at) / RFU C10orf10 (11716521_a_at) / Fold change /veh C10orf10 (11716521_a_at) / RFU C5orf56 (11738089_at) / Fold change /veh C5orf56 (11738089_at) / RFU CYB561 (11721691_x_at) / Fold change /veh CYB561 (11721691_x_at) / RFU ANKRD19P (11752326_a_at) / Fold change /veh ANKRD19P (11752326_a_at) / RFU OR2T12 /// OR2T33 /// OR2T8 (11738714_s_at) / Fold change /veh OR2T12 /// OR2T33 /// OR2T8 (11738714_s_at) / RFU VCAN (11748164_a_at) / Fold change /veh VCAN (11748164_a_at) / RFU JSRP1 (11732532_at) / Fold change /veh JSRP1 (11732532_at) / RFU KRTAP10-11 (11738290_x_at) / Fold change /veh KRTAP10-11 (11738290_x_at) / RFU MYO3A (11730013_a_at) / Fold change /veh MYO3A (11730013_a_at) / RFU EBF3 (11725865_a_at) / Fold change /veh EBF3 (11725865_a_at) / RFU CAMK2N1 (11719241_x_at) / Fold change /veh CAMK2N1 (11719241_x_at) / RFU C5orf56 (11738088_a_at) / Fold change /veh C5orf56 (11738088_a_at) / RFU OLFML3 (11715873_a_at) / Fold change /veh OLFML3 (11715873_a_at) / RFU LOC100653217 /// NTM (11731650_a_at) / Fold change /veh LOC100653217 /// NTM (11731650_a_at) / RFU MAPK11 (11762145_a_at) / Fold change /veh MAPK11 (11762145_a_at) / RFU FIZ1 (11724087_x_at) / Fold change /veh FIZ1 (11724087_x_at) / RFU OASL (11726364_x_at) / Fold change /veh OASL (11726364_x_at) / RFU SOX15 (11748057_x_at) / Fold change /veh SOX15 (11748057_x_at) / RFU CD79A (11719716_a_at) / Fold change /veh CD79A (11719716_a_at) / RFU HIST1H1D (11736915_at) / Fold change /veh HIST1H1D (11736915_at) / RFU CASKIN2 (11723855_a_at) / Fold change /veh CASKIN2 (11723855_a_at) / RFU LOC730098 (11760151_x_at) / Fold change /veh LOC730098 (11760151_x_at) / RFU OR4N2 (11742367_at) / Fold change /veh OR4N2 (11742367_at) / RFU PRRT2 (11749266_a_at) / Fold change /veh PRRT2 (11749266_a_at) / RFU SNX32 (11753110_a_at) / Fold change /veh SNX32 (11753110_a_at) / RFU CDHR5 (11726645_a_at) / Fold change /veh CDHR5 (11726645_a_at) / RFU RCAN1 (11760418_a_at) / Fold change /veh RCAN1 (11760418_a_at) / RFU FAM167A (11723789_a_at) / Fold change /veh FAM167A (11723789_a_at) / RFU FAM26E (11764081_at) / Fold change /veh FAM26E (11764081_at) / RFU ISYNA1 (11749810_s_at) / Fold change /veh ISYNA1 (11749810_s_at) / RFU ACY1 (11761880_at) / Fold change /veh ACY1 (11761880_at) / RFU 11764098_at / Fold change /veh 11764098_at / RFU SAMD14 (11745864_x_at) / Fold change /veh SAMD14 (11745864_x_at) / RFU NPB (11741838_a_at) / Fold change /veh NPB (11741838_a_at) / RFU TMPRSS6 (11731388_a_at) / Fold change /veh TMPRSS6 (11731388_a_at) / RFU KRTAP10-2 (11738614_at) / Fold change /veh KRTAP10-2 (11738614_at) / RFU ARHGAP8 /// PRR5-ARHGAP8 (11727945_x_at) / Fold change /veh ARHGAP8 /// PRR5-ARHGAP8 (11727945_x_at) / RFU KRTAP5-7 /// NADSYN1 (11734609_at) / Fold change /veh KRTAP5-7 /// NADSYN1 (11734609_at) / RFU RASL12 (11751679_a_at) / Fold change /veh RASL12 (11751679_a_at) / RFU CDKN2B (11736163_a_at) / Fold change /veh CDKN2B (11736163_a_at) / RFU PRF1 (11729649_at) / Fold change /veh PRF1 (11729649_at) / RFU, ZNF638 /// ZNF638-IT1 / Fold change vs veh, ZNF638 /// ZNF638-IT1 / RFU, PANK3 / Fold change vs veh, PANK3 / RFU, SH3YL1 / Fold change vs veh, SH3YL1 / RFU, ZEB2 / Fold change vs veh, ZEB2 / RFU, NRIP1 / Fold change vs veh, NRIP1 / RFU, PTTG1IP / Fold change vs veh, PTTG1IP / RFU, CAPN2 / Fold change vs veh, CAPN2 / RFU, MED14 / Fold change vs veh, MED14 / RFU, SNORA58 / Fold change vs veh, SNORA58 / RFU, C1orf63 / Fold change vs veh, C1orf63 / RFU, LRRFIP1 / Fold change vs veh, LRRFIP1 / RFU, NDUFAF7 / Fold change vs veh, NDUFAF7 / RFU, SLC12A2 / Fold change vs veh, SLC12A2 / RFU, IBTK / Fold change vs veh, IBTK / RFU, ESF1 / Fold change vs veh, ESF1 / Fold change vs veh, TMEM50B / RFU, TAOK1 / Fold change vs veh, TAOK1 / RFU, ACBD3 / Fold change vs veh, ACBD3 / RFU, TMA16 / Fold change vs veh, TMA16 / RFU, RWDD3 / Fold change vs veh, RWDD3 / RFU, BCAT1 / Fold change vs veh, BCAT1 / RFU, EDEM3 / Fold change vs veh, EDEM3 / RFU, TMEM33 / Fold change vs veh, TMEM33 / RFU, WDR75 / Fold change vs veh, WDR75 / RFU, AHCTF1 / Fold change vs veh, AHCTF1 / RFU, TFRC / Fold change vs veh, TFRC / RFU, ZDHHC17 / Fold change vs veh, ZDHHC17 / RFU, NOM1 / Fold change vs veh, NOM1 / RFU, ARL8B / Fold change vs veh, ARL8B / RFU, ZBTB11 / Fold change vs veh, ZBTB11 / RFU, TAMM41 / Fold change vs veh, TAMM41 / RFU, KIAA1704 /// LOC100996395 / Fold change vs veh, KIAA1704 /// LOC100996395 / RFU, ING1 / Fold change vs veh, ING1 / RFU, TRMT61B / Fold change vs veh, TRMT61B / RFU, FUBP3 / Fold change vs veh, FUBP3 / RFU, TP53 / Fold change vs veh, TP53 / RFU, TNKS2 / Fold change vs veh, TNKS2 / RFU, ZFP14 / Fold change vs veh, ZFP14 / RFU, ACTR2 / Fold change vs veh, ACTR2 / RFU, PPP3R1 / Fold change vs veh, PPP3R1 / RFU, PIK3R1 / Fold change vs veh, PIK3R1 / RFU, HNRNPA1 / Fold change vs veh, HNRNPA1 / RFU, RNF170 / Fold change vs veh, RNF170 / RFU, ZNF28 / Fold change vs veh, ZNF28 / RFU, RNGTT / Fold change vs veh, RNGTT / RFU, OGT / Fold change vs veh, OGT / RFU, BRD1 / Fold change vs veh, BRD1 / RFU, MARS / Fold change vs veh, MARS / RFU, ZNF655 / Fold change vs veh, ZNF655 / RFU, FAHD1 / Fold change vs veh, FAHD1 / RFU, BDP1 / Fold change vs veh, BDP1 / RFU, LRRCC1 / Fold change vs veh, LRRCC1 / RFU, ARID1A / Fold change vs veh, ARID1A / RFU, ZNF146 / Fold change vs veh, ZNF146 / RFU, ZNF330 / Fold change vs veh, ZNF330 / RFU, GPN3 / Fold change vs veh, GPN3 / RFU, C9orf123 / Fold change vs veh, C9orf123 / RFU, N4BP2L2 / Fold change vs veh, N4BP2L2 / RFU, ARFIP1 / Fold change vs veh, ARFIP1 / RFU, FAM179B / Fold change vs veh, FAM179B / RFU, BCL10 / Fold change vs veh, BCL10 / RFU, UHRF1BP1L / Fold change vs veh, UHRF1BP1L / RFU, BET1 / Fold change vs veh, BET1 / RFU, CNOT2 / Fold change vs veh, CNOT2 / RFU, ZNF268 / Fold change vs veh, ZNF268 / Fold change vs veh, ZNF507 / RFU, DGCR2 / Fold change vs veh, DGCR2 / RFU, WDSUB1 / Fold change vs veh, WDSUB1 / Fold change vs veh, HSP90B1 /// MIR3652 / RFU, ADSS / Fold change vs veh, ADSS / RFU, GK / Fold change vs veh, GK / RFU, ZNF148 / Fold change vs veh, ZNF148 / RFU, TAF9 / Fold change vs veh, TAF9 / RFU, SLC1A5 / Fold change vs veh, SLC1A5 / RFU, SLMO2 / Fold change vs veh, SLMO2 / RFU, ABCC4 / Fold change vs veh, ABCC4 / RFU, LOC101060439 /// RAP1B / Fold change vs veh, LOC101060439 /// RAP1B / RFU, RFX7 / Fold change vs veh, RFX7 / RFU, GTPBP10 / Fold change vs veh, GTPBP10 / RFU, CNEP1R1 / Fold change vs veh, CNEP1R1 / RFU, BIVM-ERCC5 /// ERCC5 / Fold change vs veh, BIVM-ERCC5 /// ERCC5 / RFU, ILF3 / Fold change vs veh, ILF3 / RFU 11762660_at / Fold change /veh 11762660_at / RFU VCAN (11757783_s_at) / Fold change /veh VCAN (11757783_s_at) / RFU DDX43 (11728927_at) / Fold change /veh DDX43 (11728927_at) / RFU KRT8 (11758188_x_at) / Fold change /veh KRT8 (11758188_x_at) / RFU NKD1 (11759106_at) / Fold change /veh NKD1 (11759106_at) / RFU SRD5A1 (11742802_a_at) / Fold change /veh SRD5A1 (11742802_a_at) / RFU TPSAB1 /// TPSB2 (11721975_s_at) / Fold change /veh TPSAB1 /// TPSB2 (11721975_s_at) / RFU GSTM3 (11746129_a_at) / Fold change /veh GSTM3 (11746129_a_at) / RFU IL23R (11737362_x_at) / Fold change /veh IL23R (11737362_x_at) / RFU TMEM51 (11727254_a_at) / Fold change /veh TMEM51 (11727254_a_at) / RFU PIWIL2 (11732686_x_at) / Fold change /veh PIWIL2 (11732686_x_at) / RFU ORM1 (11744905_x_at) / Fold change /veh ORM1 (11744905_x_at) / RFU CCDC152 (11743942_at) / Fold change /veh CCDC152 (11743942_at) / RFU ECM1 (11717891_a_at) / Fold change /veh ECM1 (11717891_a_at) / RFU IL23R (11748794_a_at) / Fold change /veh IL23R (11748794_a_at) / RFU TNFAIP8L3 (11732012_x_at) / Fold change /veh TNFAIP8L3 (11732012_x_at) / RFU MBOAT4 (11741988_at) / Fold change /veh MBOAT4 (11741988_at) / RFU 11764193_at / Fold change /veh 11764193_at / RFU TMEM53 (11763286_at) / Fold change /veh TMEM53 (11763286_at) / RFU MAGEB2 (11727129_at) / Fold change /veh MAGEB2 (11727129_at) / RFU TMEM200A (11744735_a_at) / Fold change /veh TMEM200A (11744735_a_at) / RFU CCDC152 (11751479_a_at) / Fold change /veh CCDC152 (11751479_a_at) / RFU FAM211A (11726209_a_at) / Fold change /veh FAM211A (11726209_a_at) / RFU RGS16 (11746705_a_at) / Fold change /veh RGS16 (11746705_a_at) / RFU VCAN (11755009_s_at) / Fold change /veh VCAN (11755009_s_at) / RFU RHOB (11743442_s_at) / Fold change /veh RHOB (11743442_s_at) / RFU RGS16 (11720943_a_at) / Fold change /veh RGS16 (11720943_a_at) / RFU RGS16 (11720944_at) / Fold change /veh RGS16 (11720944_at) / RFU, VPS4B / Fold change vs veh, VPS4B / RFU, CREB1 / Fold change vs veh, CREB1 / RFU, DNAJC13 / Fold change vs veh, DNAJC13 / RFU, GNAQ / Fold change vs veh, GNAQ / RFU, CDK5R1 / Fold change vs veh, CDK5R1 / RFU, ZRANB3 / Fold change vs veh, ZRANB3 / RFU, CUL4A / Fold change vs veh, CUL4A / RFU, CCNY / Fold change vs veh, CCNY / RFU, UFL1 / Fold change vs veh, UFL1 / RFU, COG3 / Fold change vs veh, COG3 / RFU, DIAPH2 / Fold change vs veh, DIAPH2 / RFU, SKA2 / Fold change vs veh, SKA2 / RFU, AFF3 / Fold change vs veh, AFF3 / RFU, LMF1 / Fold change vs veh, LMF1 / RFU, IPO11 / Fold change vs veh, IPO11 / RFU, DFFB / Fold change vs veh, DFFB / RFU, FOXP1 / Fold change vs veh, FOXP1 / RFU, CARD8 / Fold change vs veh, CARD8 / RFU, STRN3 / Fold change vs veh, STRN3 / RFU, ADK / Fold change vs veh, ADK / RFU, RASSF2 / Fold change vs veh, RASSF2 / RFU, WIPF1 / Fold change vs veh, WIPF1 / RFU, LARP1B / Fold change vs veh, LARP1B / RFU, RASA1 / Fold change vs veh, RASA1 / RFU, RB1 / Fold change vs veh, RB1 / RFU, PPFIA1 / Fold change vs veh, PPFIA1 / RFU, MAT2A / Fold change vs veh, MAT2A / RFU, CCT5 / Fold change vs veh, CCT5 / RFU, WDR92 / Fold change vs veh, WDR92 / RFU, CUX1 / Fold change vs veh, CUX1 / RFU, TTC7A / Fold change vs veh, TTC7A / RFU, TMEM135 / Fold change vs veh, TMEM135 / RFU, DEPTOR / Fold change vs veh, DEPTOR / RFU, CPM / Fold change vs veh, CPM / RFU, DNAJB6 / Fold change vs veh, DNAJB6 / RFU, CACNA2D3 / Fold change vs veh, CACNA2D3 / RFU, DTX4 / Fold change vs veh, DTX4 / RFU, TFCP2 / Fold change vs veh, TFCP2 / RFU, GMCL1 /// GMCL1P1 / Fold change vs veh, GMCL1 /// GMCL1P1 / RFU, AEBP2 / Fold change vs veh, AEBP2 / RFU, SNHG1 /// SNORD22 /// SNORD25 /// SNORD26 /// SNORD27 /// SNORD28 /// SNORD29 /// SNORD31 / Fold change vs veh, SNHG1 /// SNORD22 /// SNORD25 /// SNORD26 /// SNORD27 /// SNORD28 /// SNORD29 /// SNORD31 / Fold change (Aza/veh), C12orf56 (ProbeSet 11735607_a_at) / Fold change (ACY-1035/veh), C12orf56 (ProbeSet 11735607_a_at) / Fold change (Aza/veh), FGFR1OP (ProbeSet 11751329_s_at) / Fold change (ACY-1035/veh), FGFR1OP (ProbeSet 11751329_s_at) / Fold change (Aza/veh), VPS36 (ProbeSet 11739960_a_at) / Fold change (ACY-1035/veh), VPS36 (ProbeSet 11739960_a_at) / RFU SYPL1 (11715823_x_at) / Fold change /veh SYPL1 (11715823_x_at) / RFU IGFBP7 (11715501_s_at) / Fold change /veh IGFBP7 (11715501_s_at) / RFU REEP3 (11722064_at) / Fold change /veh REEP3 (11722064_at) / RFU IGLL1 (11728026_x_at) / Fold change /veh IGLL1 (11728026_x_at): dose or concentration left out as unconfirmed
# Conditions: ProbeSet 11744854_x_at; LIST B
compound,measurement,value
Nc1ccc(-c2cccs2)cc1NC(=O)c1ccc2c(c1)cc(C1CC1)n2CCN1CCOCC1 [ACY-1035],"RFU, ZNF28",57.08 RFU
